PubChem BioAssay AID248 (DTP/NCI, 2004)
Several values for one entry are separate records, joined by “and”; a condition that tells them apart may be missing. Equal values may be shown once. Inconclusive results and toxic doses are left out. Rule as the data show it: active = T/C of 150% or more; inactive = T/C below 125%.

Tested on: L1210 leukemia ip in BDF1 mice, survival T/C
Test: NCI In Vivo Anticancer Drug Screen. Data for tumor model L1210 Leukemia (intraperitoneal) in B6D2F1 (BDF1) mice
Settings: endpoint: mean survival time, higher = longer survival
How it was run: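 Transplanted-tumor mice were given test agent; controls received vehicle only. Survival readings from the two groups were divided (treated over control).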

[1] = dose: 50.0 mg/kg/injection, schedule: Q01DX001 (ip), vehicle: carboxymethylcellulose (CMC)
[2] = dose: 100.0 mg/kg/injection, schedule: Q01DX001 (ip), vehicle: carboxymethylcellulose (CMC)
[3] = dose: 100.0 mg/kg/injection, schedule: Q01DX001 (ip), vehicle: saline with Tween-80
[4] = dose: 200.0 mg/kg/injection, schedule: Q01DX001 (ip), vehicle: saline with Tween-80
[5] = dose: 400.0 mg/kg/injection, schedule: Q01DX001 (ip), vehicle: saline with Tween-80
[6] = dose: 100.0 mg/kg/injection, schedule: Q01DX001 (ip), vehicle: saline
[7] = dose: 200.0 mg/kg/injection, schedule: Q01DX001 (ip), vehicle: saline
[8] = dose: 100.0 mg/kg/injection, schedule: Q04DX003 (ip), vehicle: Klucel (hydroxypropylcellulose) (HPC)
[9] = dose: 200.0 mg/kg/injection, schedule: Q04DX003 (ip), vehicle: Klucel (hydroxypropylcellulose) (HPC)
[10] = dose: 100.0 mg/kg/injection, schedule: Q04DX003 (ip), vehicle: saline with Tween-80
[11] = dose: 200.0 mg/kg/injection, schedule: Q04DX003 (ip), vehicle: saline with Tween-80
[12] = dose: 400.0 mg/kg/injection, schedule: Q04DX003 (ip), vehicle: saline with Tween-80
[13] = dose: 100.0 mg/kg/injection, schedule: Q01DX009 (ip), vehicle: saline with Tween-80
[14] = dose: 100.0 mg/kg/injection, schedule: Q04DX003 (ip), vehicle: saline
[15] = dose: 200.0 mg/kg/injection, schedule: Q01DX009 (ip), vehicle: saline with Tween-80
[16] = dose: 200.0 mg/kg/injection, schedule: Q04DX003 (ip), vehicle: saline
[17] = dose: 400.0 mg/kg/injection, schedule: Q01DX009 (ip), vehicle: saline with Tween-80
[18] = dose: 400.0 mg/kg/injection, schedule: Q04DX003 (ip), vehicle: saline
[19] = dose: 100.0 mg/kg/injection, schedule: Q04DX002 (ip), vehicle: Klucel (hydroxypropylcellulose) (HPC)
[20] = dose: 200.0 mg/kg/injection, schedule: Q04DX002 (ip), vehicle: Klucel (hydroxypropylcellulose) (HPC)
[21] = dose: 400.0 mg/kg/injection, schedule: Q04DX002 (ip), vehicle: Klucel (hydroxypropylcellulose) (HPC)
[22] = dose: 50.0 mg/kg/injection, schedule: Q01DX009 (ip), vehicle: saline
[23] = dose: 100.0 mg/kg/injection, schedule: Q01DX009 (ip), vehicle: saline
[24] = dose: 200.0 mg/kg/injection, schedule: Q01DX009 (ip), vehicle: saline
[25] = dose: 200.0 mg/kg/injection, schedule: Q01DX001 (ip), vehicle: carboxymethylcellulose (CMC)
[26] = dose: 400.0 mg/kg/injection, schedule: Q01DX001 (ip), vehicle: carboxymethylcellulose (CMC)

Measured: T/C

N#CC(C#N)=Cc1cccnc1
inactive: dose: 12.5 mg/kg/injection, schedule: Q04DX003 (ip), vehicle: Klucel (hydroxypropylcellulose) (HPC) 98 % of control | dose: 25.0 mg/kg/injection, schedule: Q04DX003 (ip), vehicle: Klucel (hydroxypropylcellulose) (HPC) 100 % of control | [1] 101 % of control | dose: 50.0 mg/kg/injection, schedule: Q04DX003 (ip), vehicle: Klucel (hydroxypropylcellulose) (HPC) 93 % of control and 104 % of control | [2] 98 % of control

c1ccc(C2=C(c3ccccc3)C(c3ccccc3)=C(c3ccccc3)CC2)cc1
inactive: [3] 89 % of control | [4] 89 % of control | [5] 86 % of control

Fc1cccc(N2CCOCC2)c1
inactive: dose: 50.0 mg/kg/injection, schedule: Q01DX001 (ip), vehicle: saline 101 % of control | [6] 93 % of control | [7] 101 % of control

Oc1c(Cl)cc(Cl)cc1CNCc1ccccc1
inactive: dose: 100.0 mg/kg/injection, schedule: Q01DX001 (ip), vehicle: other 93 % of control | dose: 100.0 mg/kg/injection, schedule: Q04DX003 (ip), vehicle: other 110 % of control | dose: 200.0 mg/kg/injection, schedule: Q01DX001 (ip), vehicle: other 94 % of control | dose: 200.0 mg/kg/injection, schedule: Q04DX003 (ip), vehicle: other 102 % of control | dose: 400.0 mg/kg/injection, schedule: Q01DX001 (ip), vehicle: other 90 % of control | dose: 400.0 mg/kg/injection, schedule: Q04DX003 (ip), vehicle: other 110 % of control

CCCCN(CCCC)CC(O)c1cccc2c1cc(Cl)c1ccccc12 (stereo not given)
inactive: [8] 102 % of control | [9] 97 % of control | dose: 400.0 mg/kg/injection, schedule: Q04DX003 (ip), vehicle: Klucel (hydroxypropylcellulose) (HPC) 91 % of control

O=C(O)/C(=C\c1[nH]c(=O)[nH]c(=O)c1Br)NC(=O)c1ccccc1
inactive: [10] 104 % of control | [11] 103 % of control | [12] 101 % of control

Cc1cc(=O)[nH]c2c(C)cc(-c3cc(C)c4[nH]c(=O)cc(C)c4c3)cc12
inactive: [13] 101 % of control | [14] 98 % of control | [15] 97 % of control | [16] 91 % of control | [17] 92 % of control | [18] 98 % of control

Nc1ccc2c(c1)S(=O)(=O)c1cc(N)c(S(=O)(=O)O)cc1-2
inactive: [19] 115 % of control | [20] 94 % of control | [21] 97 % of control

CSCCCCCCSC
inactive: [22] 101 % of control | [23] 96 % of control | [24] 90 % of control

CCOC(=O)CSCc1cc(=O)[nH]c(=O)[nH]1
inactive: [14] 96 % of control | [16] 98 % of control | [18] 102 % of control

CC(C)(C)NP(=O)(NC(C)(C)C)c1ccc([N+](=O)[O-])cc1
inactive: dose: 100.0 mg/kg/injection, schedule: Q04DX003 (ip), vehicle: acetone 100 % of control | dose: 400.0 mg/kg/injection, schedule: Q04DX003 (ip), vehicle: acetone 93 % of control

Cc1ccc(C2(O)CC3CCC2(c2ccc(C)cc2)C3)cc1 (stereo not given)
inactive: [1] 95 % of control | [2] 101 % of control | [25] 98 % of control | [26] 98 % of control

CCCCC1=C(OCC)C(CCCC)C1=O (stereo not given)
inactive: dose: 10.0 mg/kg/injection, schedule: Q01DX009 (ip), vehicle: Klucel (hydroxypropylcellulose) (HPC) 94 % of control | dose: 20.0 mg/kg/injection, schedule: Q01DX009 (ip), vehicle: Klucel (hydroxypropylcellulose) (HPC) 92 % of control | dose: 40.0 mg/kg/injection, schedule: Q01DX009 (ip), vehicle: Klucel (hydroxypropylcellulose) (HPC) 94 % of control | dose: 100.0 mg/kg/injection, schedule: Q01DX009 (ip), vehicle: Klucel (hydroxypropylcellulose) (HPC) 101 % of control | [8] 96 % of control | [9] 100 % of control

O=C1c2cc(Br)ccc2-c2c(I)cc(Br)cc21
inactive: [1] 103 % of control | [2] 100 % of control | [25] 100 % of control | [26] 100 % of control

CC(=O)NC(C)C#N (stereo not given)
inactive: [10] 103 % of control | [11] 95 % of control | [12] 95 % of control

CCN(C(=O)C(F)(F)F)C1(c2ccc(Cl)cc2)CCCCC1SSSC1CCCCC1(c1ccc(Cl)cc1)N(CC)C(=O)C(F)(F)F (stereo not given)
inactive: [13] 106 % of control | [10] 87 % of control | [15] 98 % of control | [11] 89 % of control | [17] 108 % of control | [12] 89 % of control

CC12CC3C(C(=O)O)C(C(=O)O)C1C(C(=O)O2)C3C(=O)O (stereo not given)
inactive: [22] 97 % of control | [6] 91 % of control | [23] 90 % of control | [7] 89 % of control | [24] 100 % of control | dose: 400.0 mg/kg/injection, schedule: Q01DX001 (ip), vehicle: saline 87 % of control

NC(=O)c1cc(I)cc(I)c1N
inactive: [3] 95 % of control | [4] 97 % of control | [5] 98 % of control

CSC(N)=NC1CCCCC1
inactive: dose: 6.25 mg/kg/injection, schedule: Q01DX009 (ip), vehicle: saline 103 % of control | dose: 12.5 mg/kg/injection, schedule: Q01DX009 (ip), vehicle: saline 107 % of control | dose: 12.5 mg/kg/injection, schedule: Q04DX002 (ip), vehicle: saline 109 % of control | dose: 25.0 mg/kg/injection, schedule: Q01DX009 (ip), vehicle: saline 100 % of control | dose: 25.0 mg/kg/injection, schedule: Q04DX002 (ip), vehicle: saline 105 % of control

COc1ccc(NC(=O)c2ccc(Cl)cc2Cl)c(OC)c1
inactive: [19] 102 % of control | [20] 97 % of control | [21] 102 % of control

N#CC(C(=O)O)C1(C(C#N)C(=O)O)CCN(Cc2ccccc2)CC1 (stereo not given)
inactive: dose: 75.0 mg/kg/injection, schedule: Q01DX001 (ip), vehicle: carboxymethylcellulose (CMC) 96 % of control | dose: 150.0 mg/kg/injection, schedule: Q01DX001 (ip), vehicle: carboxymethylcellulose (CMC) 100 % of control | dose: 300.0 mg/kg/injection, schedule: Q01DX001 (ip), vehicle: carboxymethylcellulose (CMC) 102 % of control

Cn1c(C(Cl)Cl)nc2ccccc2c1=O
inactive: [1] 106 % of control | [2] 106 % of control | [25] 106 % of control | [26] 97 % of control

CC(C)=CCC1=C(O)C2=C(CCCC2)C(=O)C1=O
inactive: dose: 100.0 mg/kg/injection, schedule: Q01DX001 (ip), vehicle: water 102 % of control | dose: 200.0 mg/kg/injection, schedule: Q01DX001 (ip), vehicle: water 106 % of control | dose: 400.0 mg/kg/injection, schedule: Q01DX001 (ip), vehicle: water 93 % of control
